The values below are quoted from earlier work in US9925191B2, “Fumarate compounds, pharmaceutical compositions thereof, and methods of use” (priority 2015, dated 2018).

As to `COC(=O)/C=C/C(=O)OC` [DMF, dimethylfumarate], the aqueous solubility entry is reported as “poor aqueous solubility”.
